Assay results: patent publication US6358885B1, “Substituted phenylheterocyclic herbicides” (Mississippi State University, priority 1992, dated 2002)

Experiments:
Test in all cases: Test B preemergence/postemergence greenhouse plant response rating 0 to 10
Details in all cases: 0 to 10 scale
lambsquarters = type: in vivo, Chenopodium album
Procedure, shortened: (§1)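 Postemergence treatment of plants two to eighteen cm tall ran alongside preemergence treatment of planted seed, each using compound in a non-phytotoxic solvent.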

soybean = type: in vivo, Glycine max
Procedure, shortened: as §1

cheatgrass = type: in vivo, Bromus secalinus
Procedure, shortened: as §1

sugar beet = type: in vivo, Beta vulgaris
Procedure, shortened: as §1

wheat = type: in vivo, Triticum aestivum
Procedure, shortened: as §1

sorghum = type: in vivo, Sorghum bicolor
Procedure, shortened: as §1

wild buckwheat = type: in vivo, Polygonum convolvulus
Procedure, shortened: as §1

barnyardgrass = type: in vivo, Echinochloa crus-galli
Procedure, shortened: as §1

cocklebur = type: in vivo, Xanthium pensylvanicum
Procedure, shortened: as §1

chickweed = type: in vivo, Stellaria media
Procedure, shortened: as §1

crabgrass = type: in vivo, Digitaria spp.
Procedure, shortened: as §1

barley = type: in vivo, Hordeum vulgare
Procedure, shortened: as §1

corn = type: in vivo, Zea mays
Procedure, shortened: as §1

blackgrass = type: in vivo, Alopecurus myosuroides
Procedure, shortened: as §1

giant foxtail = type: in vivo, Setaria faberii
Procedure, shortened: as §1

morningglory = type: in vivo, Ipomoea hederacea
Procedure, shortened: as §1

velvetleaf = type: in vivo, Abutilon theophrasti
Procedure, shortened: as §1

rape = type: in vivo, Brassica napus
Procedure, shortened: as §1

purple nutsedge = type: in vivo, Cyperus rotundus
Procedure, shortened: as §1

cotton = type: in vivo, Gossypium hirsutum
Procedure, shortened: as §1

rice = type: in vivo, Oryza sativa
Procedure, shortened: as §1

bedstraw = type: in vivo, Galium aparine
Procedure, shortened: as §1

wild oat = type: in vivo, Avena fatua
Procedure, shortened: as §1

**Q.** How did the “Plant response rating, Lambsquarter” value (lambsquarters; POSTEMERGENCE, Rate 10 g/ha) turn out when CC(C#N)Oc1cc(-c2nn3c(c2Cl)CCCC3)c(F)cc1Cl (centres unmarked) [Compound 60] was run?
**A.** 10

**Q.** And the “Plant response rating, Lambsquarter” value (lambsquarters; POSTEMERGENCE, Rate 50 g/ha)?
**A.** 10

**Q.** What about the “Plant response rating, Lambsquarter” value (lambsquarters; PREEMERGENCE, Rate 50 g/ha) of the same molecule?
**A.** 9

**Q.** And the “Plant response rating, Soybean” value (soybean; POSTEMERGENCE, Rate 10 g/ha)?
**A.** 6

**Q.** What about the “Plant response rating, Soybean” value (soybean; POSTEMERGENCE, Rate 50 g/ha) of the same molecule?
**A.** 4

**Q.** What about the “Plant response rating, Soybean” value (soybean; PREEMERGENCE, Rate 50 g/ha) of the same molecule?
**A.** 0

**Q.** And the “Plant response rating, Cheatgrass” value (cheatgrass; POSTEMERGENCE, Rate 10 g/ha)?
**A.** 3

**Q.** And the “Plant response rating, Cheatgrass” value (cheatgrass; POSTEMERGENCE, Rate 50 g/ha)?
**A.** 3

**Q.** What about the “Plant response rating, Cheatgrass” value (cheatgrass; PREEMERGENCE, Rate 10 g/ha) of the same molecule?
**A.** 0

**Q.** What about the “Plant response rating, Cheatgrass” value (cheatgrass; PREEMERGENCE, Rate 50 g/ha) of the same molecule?
**A.** 2

**Q.** And the “Plant response rating, Sugar beet” value (sugar beet; POSTEMERGENCE, Rate 10 g/ha)?
**A.** 10

**Q.** And the “Plant response rating, Sugar beet” value (sugar beet; POSTEMERGENCE, Rate 50 g/ha)?
**A.** 10

**Q.** And the “Plant response rating, Sugar beet” value (sugar beet; PREEMERGENCE, Rate 50 g/ha)?
**A.** 9

**Q.** And the “Plant response rating, Wheat” value (wheat; POSTEMERGENCE, Rate 10 g/ha)?
**A.** 3

**Q.** What about the “Plant response rating, Wheat” value (wheat; POSTEMERGENCE, Rate 50 g/ha) of the same molecule?
**A.** 4

**Q.** What about the “Plant response rating, Wheat” value (wheat; PREEMERGENCE, Rate 50 g/ha) of the same molecule?
**A.** 2

**Q.** And the “Plant response rating, Sorghum” value (sorghum; POSTEMERGENCE, Rate 10 g/ha)?
**A.** 3

**Q.** What about the “Plant response rating, Sorghum” value (sorghum; POSTEMERGENCE, Rate 50 g/ha) of the same molecule?
**A.** 3

**Q.** What about the “Plant response rating, Sorghum” value (sorghum; PREEMERGENCE, Rate 50 g/ha) of the same molecule?
**A.** 2

**Q.** And the “Plant response rating, Wild buckwheat” value (wild buckwheat; POSTEMERGENCE, Rate 10 g/ha)?
**A.** 9

**Q.** What about the “Plant response rating, Wild buckwheat” value (wild buckwheat; POSTEMERGENCE, Rate 50 g/ha) of the same molecule?
**A.** 10

**Q.** And the “Plant response rating, Wild buckwheat” value (wild buckwheat; PREEMERGENCE, Rate 50 g/ha)?
**A.** 7

**Q.** What about the “Plant response rating, Barnyardgrass” value (barnyardgrass; POSTEMERGENCE, Rate 10 g/ha) of the same molecule?
**A.** 3

**Q.** And the “Plant response rating, Barnyardgrass” value (barnyardgrass; POSTEMERGENCE, Rate 50 g/ha)?
**A.** 4

**Q.** And the “Plant response rating, Barnyardgrass” value (barnyardgrass; PREEMERGENCE, Rate 10 g/ha)?
**A.** 0

**Q.** What about the “Plant response rating, Barnyardgrass” value (barnyardgrass; PREEMERGENCE, Rate 50 g/ha) of the same molecule?
**A.** 0

**Q.** What about the “Plant response rating, Cocklebur” value (cocklebur; POSTEMERGENCE, Rate 10 g/ha) of the same molecule?
**A.** 6

**Q.** And the “Plant response rating, Cocklebur” value (cocklebur; POSTEMERGENCE, Rate 50 g/ha)?
**A.** 8

**Q.** And the “Plant response rating, Cocklebur” value (cocklebur; PREEMERGENCE, Rate 10 g/ha)?
**A.** 0

**Q.** And the “Plant response rating, Cocklebur” value (cocklebur; PREEMERGENCE, Rate 50 g/ha)?
**A.** 0

**Q.** And the “Plant response rating, Chickweed” value (chickweed; POSTEMERGENCE, Rate 10 g/ha)?
**A.** 3

**Q.** And the “Plant response rating, Chickweed” value (chickweed; POSTEMERGENCE, Rate 50 g/ha)?
**A.** 7

**Q.** And the “Plant response rating, Chickweed” value (chickweed; PREEMERGENCE, Rate 50 g/ha)?
**A.** 4

**Q.** And the “Plant response rating, Crabgrass” value (crabgrass; POSTEMERGENCE, Rate 10 g/ha)?
**A.** 2

**Q.** And the “Plant response rating, Crabgrass” value (crabgrass; POSTEMERGENCE, Rate 50 g/ha)?
**A.** 2

**Q.** What about the “Plant response rating, Crabgrass” value (crabgrass; PREEMERGENCE, Rate 10 g/ha) of the same molecule?
**A.** 0

**Q.** And the “Plant response rating, Crabgrass” value (crabgrass; PREEMERGENCE, Rate 50 g/ha)?
**A.** 0

**Q.** And the “Plant response rating, Barley” value (barley; POSTEMERGENCE, Rate 10 g/ha)?
**A.** 3

**Q.** And the “Plant response rating, Barley” value (barley; POSTEMERGENCE, Rate 50 g/ha)?
**A.** 4

**Q.** What about the “Plant response rating, Barley” value (barley; PREEMERGENCE, Rate 10 g/ha) of the same molecule?
**A.** 0

**Q.** And the “Plant response rating, Barley” value (barley; PREEMERGENCE, Rate 50 g/ha)?
**A.** 0

**Q.** What about the “Plant response rating, Corn” value (corn; POSTEMERGENCE, Rate 10 g/ha) of the same molecule?
**A.** 3

**Q.** What about the “Plant response rating, Corn” value (corn; POSTEMERGENCE, Rate 50 g/ha) of the same molecule?
**A.** 3

**Q.** And the “Plant response rating, Corn” value (corn; PREEMERGENCE, Rate 50 g/ha)?
**A.** 0

**Q.** And the “Plant response rating, Blackgrass” value (blackgrass; POSTEMERGENCE, Rate 10 g/ha)?
**A.** 3

**Q.** What about the “Plant response rating, Blackgrass” value (blackgrass; POSTEMERGENCE, Rate 50 g/ha) of the same molecule?
**A.** 3

**Q.** What about the “Plant response rating, Blackgrass” value (blackgrass; PREEMERGENCE, Rate 10 g/ha) of the same molecule?
**A.** 0

**Q.** And the “Plant response rating, Blackgrass” value (blackgrass; PREEMERGENCE, Rate 50 g/ha)?
**A.** 0

**Q.** And the “Plant response rating, Giant foxtail” value (giant foxtail; POSTEMERGENCE, Rate 10 g/ha)?
**A.** 3

**Q.** And the “Plant response rating, Giant foxtail” value (giant foxtail; POSTEMERGENCE, Rate 50 g/ha)?
**A.** 4

**Q.** What about the “Plant response rating, Giant foxtail” value (giant foxtail; PREEMERGENCE, Rate 10 g/ha) of the same molecule?
**A.** 0

**Q.** What about the “Plant response rating, Giant foxtail” value (giant foxtail; PREEMERGENCE, Rate 50 g/ha) of the same molecule?
**A.** 2

**Q.** What about the “Plant response rating, Morningglory” value (morningglory; POSTEMERGENCE, Rate 10 g/ha) of the same molecule?
**A.** 7

**Q.** What about the “Plant response rating, Morningglory” value (morningglory; POSTEMERGENCE, Rate 50 g/ha) of the same molecule?
**A.** 7

**Q.** What about the “Plant response rating, Morningglory” value (morningglory; PREEMERGENCE, Rate 50 g/ha) of the same molecule?
**A.** 3

**Q.** And the “Plant response rating, Velvetleaf” value (velvetleaf; POSTEMERGENCE, Rate 10 g/ha)?
**A.** 7

**Q.** And the “Plant response rating, Velvetleaf” value (velvetleaf; POSTEMERGENCE, Rate 50 g/ha)?
**A.** 8

**Q.** And the “Plant response rating, Velvetleaf” value (velvetleaf; PREEMERGENCE, Rate 50 g/ha)?
**A.** 6

**Q.** What about the “Plant response rating, Rape” value (rape; POSTEMERGENCE, Rate 10 g/ha) of the same molecule?
**A.** 6

**Q.** And the “Plant response rating, Rape” value (rape; POSTEMERGENCE, Rate 50 g/ha)?
**A.** 10

**Q.** What about the “Plant response rating, Rape” value (rape; PREEMERGENCE, Rate 50 g/ha) of the same molecule?
**A.** 6

**Q.** What about the “Plant response rating, Nutsedge” value (purple nutsedge; POSTEMERGENCE, Rate 10 g/ha) of the same molecule?
**A.** 1

**Q.** And the “Plant response rating, Nutsedge” value (purple nutsedge; POSTEMERGENCE, Rate 50 g/ha)?
**A.** 2

**Q.** What about the “Plant response rating, Nutsedge” value (purple nutsedge; PREEMERGENCE, Rate 50 g/ha) of the same molecule?
**A.** 0

**Q.** What about the “Plant response rating, Cotton” value (cotton; POSTEMERGENCE, Rate 10 g/ha) of the same molecule?
**A.** 9

**Q.** And the “Plant response rating, Cotton” value (cotton; POSTEMERGENCE, Rate 50 g/ha)?
**A.** 10

**Q.** And the “Plant response rating, Cotton” value (cotton; PREEMERGENCE, Rate 10 g/ha)?
**A.** 0

**Q.** And the “Plant response rating, Cotton” value (cotton; PREEMERGENCE, Rate 50 g/ha)?
**A.** 5

**Q.** And the “Plant response rating, Rice” value (rice; POSTEMERGENCE, Rate 10 g/ha)?
**A.** 3

**Q.** And the “Plant response rating, Rice” value (rice; POSTEMERGENCE, Rate 50 g/ha)?
**A.** 4

**Q.** What about the “Plant response rating, Rice” value (rice; PREEMERGENCE, Rate 50 g/ha) of the same molecule?
**A.** 1

**Q.** What about the “Plant response rating, Bedstraw” value (bedstraw; POSTEMERGENCE, Rate 10 g/ha) of the same molecule?
**A.** 7

**Q.** What about the “Plant response rating, Bedstraw” value (bedstraw; POSTEMERGENCE, Rate 50 g/ha) of the same molecule?
**A.** 9

**Q.** What about the “Plant response rating, Bedstraw” value (bedstraw; PREEMERGENCE, Rate 50 g/ha) of the same molecule?
**A.** 6

**Q.** And the “Plant response rating, Wild oat” value (wild oat; POSTEMERGENCE, Rate 10 g/ha)?
**A.** 2

**Q.** And the “Plant response rating, Wild oat” value (wild oat; POSTEMERGENCE, Rate 50 g/ha)?
**A.** 4

**Q.** And the “Plant response rating, Wild oat” value (wild oat; PREEMERGENCE, Rate 50 g/ha)?
**A.** 3
